A word on the inhibition: it is how much of the control response was suppressed. Low readings indicate little suppression, high ones strong suppression. The term IC50 denotes the concentration needed to halve the response being measured. High values mean lower potency, low ones higher potency.

The results in this text go back to article PMC6571560, “Aldose Reductase, Protein Glycation Inhibitory and Antioxidant of Peruvian Medicinal Plants: The Case of Tanacetum parthenium L. and Its Constituents” (Molecules, 2019).

Experiment [1] relates to advanced glycation end products (AGEs) formation. Briefly: Bovine serum albumin-methylglyoxal assay for AGEs formation. It counts as biochemical. The note with it: for IC50: table head prints no unit, μM. The method, then: BSA (50 mg/mL) was incubated with methylglyoxal (100 mM) in sodium phosphate buffer (0.1 M, pH 7.4) in the presence of various concentrations of the compounds (including a control) at 37 °C for 24 h. Then, the fluorescence intensity was measured at an excitation wavelength of 355 nm and an emission wavelength of 460 nm with a luminescence spectrometer (LS50B, Perkin–Elmer Ltd., Buckinghamshire, UK). […] All reagents and samples were sterilized by filtration through […] membrane filters.

Experiment [2] concerns sorbitol accumulation in rat lens. Briefly: Lens culture and sorbitol accumulation in rat lens. In kind it is cell-based. The following applies: compound 5 μg/mL, mean ± SD (n = 3); for Sorbitol Content (mg)/lens Wet Weight (g): rat lens cultured 6 d in 30 mM glucose; for inhibition at 5 µg/mL: rat lens cultured in 30 mM glucose. As for the experimental part: Lenses isolated from 10-week-old Sprague-Dawley rats were cultured for 6 d in TC-199 medium that contained 15% fetal bovine serum, 100 units/mL penicillin, and 0.1 mg/mL streptomycin, under sterile conditions and an atmosphere of 5% CO2 and 95% air at 37 °C. The lenses were divided into three groups and cultured in medium containing 30 mM glucose and active compounds. Each lens was placed in a well containing 2.0 mL of medium. Sorbitol was determined by HPLC after derivatization by reaction with benzoic acid to a form of a fluorescent compound [37].

Experiment [3] has as its target T1, rat lens aldose reductase (RLAR) (Rattus norvegicus, UniProt P07943).
T1 construct: The supernatant was collected and used as the RLAR; from tissue; host or cells: lenses of Sprague-Dawley rats (homogenate supernatant)
Briefly: Rat lens aldose reductase (RLAR) inhibition, NADPH absorbance decrease at 340 nm. It counts as biochemical. The following applies: for IC50: mean ± SEM, three independent experiments in duplicate. As for the experimental part: Crude RLAR was prepared as follows: lenses were removed from Sprague-Dawley rats (Weighing 250–280 g) and frozen at −70 °C until use. Non-cataractous transparent lenses were pooled, and a homogenate was prepared in 0.1 M phosphate-buffered saline (pH 6.2). The RLAR homogenate was then centrifuged at 10,000× gfor 20 min at 4 °C in a refrigerated centrifuge. The supernatant was collected and used as the RLAR [35]. This experiment was approved by the University of Hallym Animal Care and Use Committee (Registration Number: Hallym R2016-60). All of the procedures were conducted in accordance with the ‘Guide for Care and Use of Laboratory Animals’, published by the National Institutes of Health.
A total of 531 μL of 0.1 M potassium buffer (pH 7.0), 90 μL of NADPH solution (1.6 mM in potassium buffer), 90 μL of RLAR homogenate (6.5 U/mg), 90 μL of ammonium sulfate solution (4 M in potassium buffer), and 90 μL of DL-glyceraldehyde (25 mM in potassium buffer) were mixed with 9 μL of different concentrations of samples (1–0.1 mg/mL in dimethylsulfoxide (DMSO), Less than 1% in total mixture) in a cuvette, and the activity of RLAR was assessed spectrophotometrically by measuring the decrease in NADPH absorbance at 340 nm for 3 min using a spectrophotometer (SECOMAM, Ales Cedex, France).

Experiment [4] can be described thus: DPPH-HPLC assay. The following applies: peak in TP extract after reaction with DPPH, HPLC 254 nm. The method, then: The antioxidant compounds from TP were profiled with a DPPH-HPLC assay. TP (90 µL; 10.0 mg/mL) was mixed with 540 µL of DPPH solution (0.32 mM), and the mixed solution was then incubated at 37 °C for 20 min in a dark room. The solution was then filtered through a 0.45 µm membrane filter and then subjected to HPLC analysis. The HPLC conditions were the same as those described in the HPLC analysis section.
(Loss of DPPH colour is used to gauge radical scavenging.)

Experiment [5] addresses T2, human recombinant aldose reductase (HRAR) (Homo sapiens, UniProt P15121).
T2 construct: purchased Wako Pure Chemical Industries (Osaka, Japan)
Briefly: Human recombinant aldose reductase ultrafiltration HPLC assay. In kind it is binding. The following applies: peak in TP extract (0.1 mg/mL) incubated with 3.9 μM HRAR. The method, then:
The inhibitory compounds of HRAR from TP were profiled by an AR ultrafiltration assay. Specifically, TP (at a final concentration of 0.1 mg/mL) was incubated with 0.6 M ammonium sulfate and 3.9 μM HRAR in a total volume of 300 μL at 37 °C for 30 min. Then, the incubated mixture was filtered by using a Microcon YM-10 centrifugal filter unit by centrifugation at 5167× g for 30 min at room temperature. The filtrate was subsequently analyzed by using the methods mentioned in the HPLC analysis section. A sample incubated without HRAR was used as a control. The relative binding affinity of the inhibitors from TP toward HRAR was defined as the “binding degree” (BD), which can be calculated as follows: BD (%) = (Aa − Ab)/Aa × 100, in which Aa and Ab are the peak areas of a compound without and with HRAR in the HPLC chromatograms, respectively.

Experiment [6] is described as follows: DPPH radical scavenging capacity. As for the experimental part: The DPPH radical scavenging capacity assay method of Yin et al. was used. DPPH (0.32 mM) was diluted with MeOH, and this solution (180 µL) was mixed with 30 µL of the sample at each concentration. After 20 min of incubation in a darkroom, the absorbance at 570 nm was recorded on a microplate reader (EL800 Universal Microplate reader, Bio-Tek Instruments, Winooski, VT, USA). DPPH radical scavenging activity was expressed as the percentage inhibition (%) of DPPH in the aforementioned assay system and was calculated as (1 – B/A) × 100, in which A and B are the activities of DPPH without and with the test material, respectively.

For `N=C(N)NN` [Aminoguanidine, aminoguanidine, reference compound], the “AGEs Inhibition (%)” value in experiment [1] (20 μg/mL) is recorded as 20.75%; in experiment [1] (100 μg/mL), 39.94%; in experiment [1] (200 μg/mL), 75.32%. The “AGEs IC50” value in experiment [1] (mean ± SEM) was found to be 121.96 ± 5.10 µg/mL.
In the case of `COc1cc(/C=C/C(=O)O)ccc1O` [Compound 1, ferulic acid], in experiment [2], the “Sorbitol Content (mg)/lens Wet Weight (g)” value (shortened to “Sorbitol Content”) worked out at 0.29 ± 0.03 mg/g and the inhibition at 5 µg/mL turned out to be 80.3 ± 2.38%. In experiment [3], this molecule displayed an IC50 of 1.11 to 3.2 µM. In addition, the “DPPH PAR (%), peak area reduction” value in experiment [4] amounted to 23.53%. The “HRAR binding degree (%)” value in experiment [5] is 27.08%.
Regarding `O=c1cc(-c2ccc(O)cc2)oc2cc(O)cc(O)c12` [Compound 2, apigenin], in experiment [2], the “Sorbitol Content” value is 0.19 ± 0.06 mg/g and the inhibition at 5 µg/mL was 87.1 ± 2.37%. The same molecule yielded a half-maximal inhibitory concentration (IC50) in experiment [3] of 1.11 to 3.2 µM. In addition, in experiment [4], the “DPPH PAR (%), peak area reduction” value is listed as 11.28%. In experiment [5], the “HRAR binding degree (%)” value came to 15.00%. Moreover, the “AGEs Inhibition (%)” value in experiment [1] (20 μg/mL) is reported as 8.14%. The half-inhibitory concentration (IC50) in experiment [1] is > 55 µM.
Take `O=c1cc(-c2ccc(O)c(O)c2)oc2cc(O[C@@H]3O[C@H](CO)[C@@H](O)[C@H](O)[C@H]3O)cc(O)c12` [Compound 3, luteolin-7-O-glucoside]: in experiment [2], the “Sorbitol Content” value was 0.07 ± 0.01 mg/g and the inhibition at 5 µg/mL amounted to 95.2 ± 5.97%. Besides, the IC50 in experiment [3] fell in the range of 1.11 to 3.2 µM. The “DPPH PAR (%), peak area reduction” value in experiment [4] is recorded as 16.85%. Also, the “HRAR binding degree (%)” value in experiment [5] is reported as 26.58%. Further, the “AGEs inhibition potency relative to aminoguanidine (times higher)” value in experiment [1] (ratio of IC50 values) is reported as 32.23 times.
In the case of `O=c1cc(-c2ccc(O)c(O)c2)oc2cc(O)cc(O)c12` [Compound 4, luteolin], in experiment [2], the “Sorbitol Content” value came out at 0.12 ± 0.02 mg/g and the inhibition at 5 µg/mL stood at 91.8 ± 5.23%. For the same molecule, the “DPPH PAR (%), peak area reduction” value in experiment [4] is on record as 29.36%. In addition, the “HRAR binding degree (%)” value in experiment [5] amounted to 38.02%.
With `COc1cc2oc(-c3ccc(O)c(O)c3)c(OC)c(=O)c2c(O)c1OC` [Compound 5, chrysosplenol], the “Sorbitol Content” value in experiment [2] is given as 0.26 ± 0.03 mg/g. In experiment [2], this molecule yielded an inhibition at 5 µg/mL of 82.3 ± 2.39%. In addition, the IC50 in experiment [6] (mean ± SEM, listed as Chrysosplenol (5)) was > 250 µM; in experiment [3], 1.11 to 3.2 µM; in experiment [1], > 55 µM. Besides, the “DPPH PAR (%), peak area reduction” value in experiment [4] came out at 7.19%. Moreover, the “HRAR binding degree (%)” value in experiment [5] worked out at 25.54%. Moreover, the “AGEs Inhibition (%)” value in experiment [1] (20 μg/mL) was determined as 5.38%.
Consider `O=c1c(O)c(-c2ccc(O)cc2)oc2cc(O)cc(O)c12` [Compound 6, kaempferol], for which, in experiment [2], the “Sorbitol Content” value is reported as 0.03 ± 0.00 mg/g. Further, the inhibition at 5 µg/mL in experiment [2] is 98 ± 6.31%. The IC50 was 1.11 to 3.2 µM in experiment [3] and > 55 µM in experiment [1]. Further, in experiment [4], the “DPPH PAR (%), peak area reduction” value stood at 13.97%. In experiment [5], the “HRAR binding degree (%)” value amounted to 24.29%.
`COc1ccc(-c2oc3cc(O)c(OC)c(O)c3c(=O)c2OC)cc1` [Compound 7, santin]: the IC50 is > 208 µM in experiment [6] (mean ± SEM), > 28 µM in experiment [3] and > 55 µM in experiment [1]. Besides, the “DPPH PAR (%), peak area reduction” value in experiment [4] is given as 0%. The “HRAR binding degree (%)” value in experiment [5] turned out to be 0%. Also, in experiment [1] (20 μg/mL), the “AGEs Inhibition (%)” value was determined as 13.15%.
On to `O=C1O[C@H]([C@@H](O)CO)C(O)=C1O` [L-ascorbic acid], for which the “DPPH Inhibition (%)” value in experiment [6] (3 μg/mL) turned out to be 33.71%; in experiment [6] (7.5 μg/mL) it was 58.34%; in experiment [6] (15 μg/mL), 97.23%. The “DPPH IC50” value in experiment [6] (mean ± SEM) is 6.02 ± 0.37 µg/mL.
Regarding `O=c1c(O)c(-c2ccc(O)c(O)c2)oc2cc(O)cc(O)c12` [Quercetin, quercetin, reference compound], in experiment [2], the “Sorbitol Content” value is recorded as 0.21 ± 0.02 mg/g and at 5 µg/mL the inhibition was 85.7 ± 5.71%. 0.5 µg/mL produced 23.6% inhibition in experiment [3] (0.5 μg/mL). In experiment [3] (1 μg/mL), this molecule returned an inhibition at 1 µg/mL of 44.8%. In experiment [3] (10 μg/mL), this molecule came in with an inhibition at 10 µg/mL of 81.3%.
